Entries after “also recorded” stand apart in the source; their conditions may differ.
Legend:
UT189 = experiment: Copper mediated cytotoxicity assay, wild type strain; format: cell-based, E. coli; settings: for effect on viability: 20 μM alone, no copper; for effect on copper (II) sulfate toxicity: exogenous addition of 20 μM
Method: (§1) Following overnight growth in 50 mL M63 minimal media, bacterial cultures were washed twice in phosphate buffered saline (PBS, Sigma) and centrifuged at 6,500 rpm. Washed cultures were resuspended in fresh M63 minimal media, and normalized to 10^8 CFU/mL for subsequent treatment. Normalized cultures were treated with varying concentrations of copper (II) sulfate and test agent in 2 mL reaction volumes in 6-well tissue culture plates. Samples were incubated for 20 hours at 37° C. with shaking. Bacterial viability was reported as the number of colony forming units per milliliter of the reaction volume post-treatment (CFU/mL).

[1] = Free copper (I) determination with bathocuproine; settings: for reduction of copper (II) to copper (I): 20 μM reductant, 17.5 μM copper (II) sulfate
Method: Free copper (I) was determined spectrophotometrically using the copper (I) indicator bathocuproine. Briefly, 25 μM bathocuproine, 25 μM apo-yersiniabactin, and 17.5 μM copper (II) sulfate, were used in combination in order-of-addition experiments, as well as alone as controls in PBS. Either 20 μM enterobactin (Sigma) or its catecholate moiety, 2,3-dihydroxybenzoic acid (DHB) were added as bioreductants. Following a 30 minute room temperature incubation, 25 μM bathocuproine was added and copper (I) levels were determined by measuring the visible absorbance at 480 nm of the cuprous-bathocuproine complex. Final concentrations of copper (I) were determined by comparison to a standard curve.

RAW264.7 macrophages = settings: 25 mM DPI, data not shown
[2] = tested on: yersiniabactin biosynthesis; experiment: Inhibition of yersiniabactin biosynthesis in a urinary pathogenic E. coli strain; format: cell-based
Text: (§2) The ability of PAS to inhibit yersiniabactin biosynthesis in a urinary pathogenic E. coli strain was examined.

[3] = tested on: urinary pathogenic E. coli strain; experiment: In vitro growth of urinary pathogenic E. coli strain; format: cell-based; settings: at levels that inhibit yersiniabactin biosynthesis
Text: as §2

[4] = Superoxide dismutase (SOD) activity, xanthine/xanthine oxidase WST-1 formazan assay; format: biochemical; settings: for superoxide dismutase activity (in words) / SOD activity, percentage inhibition rate: WST-formazan assay, no added protein; for superoxide dismutase activity in the presence of protein: 1.0 mg/mL bovine serum albumin
Method: Reduction of WST-1 was monitored at 440 nm in a final volume of 100 μL. One unit of activity was defined as the amount of compound which blocked 50% WST-1 reduction under these conditions. […] To determine whether SOD activity is retained in the presence of protein, these experiments were repeated in the presence of 1.0 mg/mL bovine serum albumin (Sigma).

UTI89ΔybtS = experiment: Copper mediated cytotoxicity assay, yersiniabactin-deficient strain; format: cell-based, E. coli
Method: as §1

[5] = UV-Vis spectroscopy of metal interaction; format: physicochemical; settings: purified HPTT with Fe (III) and Cu (II)
Text: At this point, it had been confirmed that HPTT is detectable in vivo in a model UPEC strain that makes yersiniabactin. FIG. 24 confirms that HPTT is detected in wildtype UT189 but not UT189 strains comprising deletions in the yersiniabactin synthesis pathway (ybtS and ybtE). Given that HPTT is being secreted outside the cell and that it is made in relatively high abundance, we wanted to see if HPTT could be performing a specific function for the bacteria, and not simply a transient intermediate along the way to Ybt (FIG. 24). Given that its structure is similar to yersiniabactin, a siderophore, we hypothesized that it could interact with metals. Using solid phase extraction and HPLC, HPTT was purified to homogeneity with no contaminants, as detectable by HPLC. The purified compound was used to look for interactions with iron and copper by UV-Vis spectroscopy.

[6] = tested on: E. coli clinical isolates; experiment: Antimicrobial susceptibility of clinical isolates by disk diffusion; format: cell-based; settings: for resistant clinical isolates: 337 bacteriuric inpatient clinical isolates
Text: The samples were collected as part of a Washington University Institutional Review Board-approved prospective study of patients with E. coli bacteriuria (>5×10^4 colony forming units per milliliter) described by Marschall et al.^11 Strains without associated blood culture data were not excluded from this study. Briefly, clinical isolates were collected from male and female patients with significant bacteriuria. Bacterial DNA was extracted using a QIAamp DNA mini kit (Qiagen, Valencia, Calif.). DNA probes for virulence genes were conducted as previously described^11, and the presence of these genes was determined by dot-blot hybridization using a microarray system as described elsewhere (Table 1). E. coli phylogenetic group was determined from hybridization results using the triple genotyping method of Clermont et al.^25 Antimicrobial susceptibility was determined using disk diffusion tests. Bacteriuria was defined as? 5×10^4 colony forming units (CFU)/mL in non-catheterized patients and ≧5×10^3 CFU/mL in catheterized patients, as well as by using the patients' documented urinary symptoms. Pyelonephritis was defined as the presence of flank pain and tenderness and/or fever; sepsis and sepsis-induced hypotension were defined using established clinical criteria. The Microbiology Laboratory at Barnes Jewish Hospital provided clinical antibiogram data.

O=C(O)c1cccc(O)c1O [DHB, 2,3-dihydroxybenzoic acid]
effect on viability (UT189): minimal effect | effect on copper (II) sulfate toxicity (UT189): enhances copper (II) sulfate toxicity | reduction of copper (II) to copper (I) [1]: 93.1%

c1ccc2c(c1)[I+]c1ccccc1-2 [DPI, Diphenyleneiodonium]
oxidative-burst activity (RAW264.7 macrophages): decreased oxidative-burst activity to background levels | phagocytosis (RAW264.7 macrophages): without any gross defect in phagocytosis

Nc1ccc(C(=O)O)c(O)c1 [PAS, Para-aminosalicylic acid]
inhibition of yersiniabactin biosynthesis [2]: selectively inhibits yersiniabactin biosynthesis | inhibition of in vitro growth [3]: did not inhibit in vitro growth; also recorded: without inhibiting growth

CC(C)(C1=N[C@@](C)(C(=O)O)CS1)[C@H](O)[C@@H]1CSC([C@H]2CSC(c3ccccc3O)=N2)N1 (stereo partly drawn) [apo-yersiniabactin]
superoxide dismutase activity (in words) [4]: did not demonstrate superoxide dismutase activity and not | cytoprotection from copper toxicity (UTI89ΔybtS; added in 1.5-fold molar excess over copper (II) sulfate): restores growth to untreated wild type levels | effect on bacterial viability (UTI89ΔybtS; in the absence of copper): negligible effect | decrease in viable cells compared to wild type (UTI89ΔybtS; purified apo-Ybt added with 10 μM copper sulfate): 0.024 log | copper (I) bathocuproine signal ([1]; apo-Ybt added before enterobactin or DHB, listed as Apo-yersiniabactin): prevents catechol-dependent reduction | copper (I) bathocuproine signal ([1]; apo-Ybt added before enterobactin or DHB, listed as apo-Ybt): almost completely blocked | copper (I) bathocuproine signal ([1]; enterobactin or DHB added before apo-Ybt): restored the copper (I) signal

O=S(=O)([O-])[O-].[Cu+2] [copper sulfate, copper (II) sulfate]
superoxide dismutase activity in the presence of protein [4]: suppressed | SOD activity, percentage inhibition rate [4]: 33.8% | superoxide dismutase activity (in words) [4]: did not demonstrate any superoxide dismutase like activity | decrease in bacterial viability (UTI89ΔybtS; 10 μM copper sulfate alone): > 3 log CFU/mL | reduction of viable colonies (UT189; 10 μM copper (II) sulfate alone): 2.5 log

O=C(N[C@H]1COC(=O)[C@@H](NC(=O)c2cccc(O)c2O)COC(=O)[C@@H](NC(=O)c2cccc(O)c2O)COC1=O)c1cccc(O)c1O [enterobactin]
effect on viability (UT189): minimal effect | effect on copper (II) sulfate toxicity (UT189): enhances copper (II) sulfate toxicity | reduction of copper (II) to copper (I) [1]: 84.7%

[Cl][Fe]([Cl])[Cl] [ferric chloride]
superoxide dismutase activity (in words) [4]: did not demonstrate any superoxide dismutase like activity

CC(C)(C1=N[C@@](C)(C(=O)O)CS1)[C@H](O)[C@@H]1CSC([C@H]2CSC(c3ccccc3O)=N2)[N-]1.[Fe] (stereo partly drawn) [ferric complexes of yersiniabactin]
SOD activity, percentage inhibition rate [4]: 41.4% | superoxide dismutase activity (in words) [4]: demonstrated SOD-like activity

bovine Cu/Zn SOD: bovine Cu/Zn superoxide dismutase used as a standard (Sigma S-7571)
superoxide dismutase activity (in words) [4]: completely inhibited superoxide anion formation

copper (II)-salicylate
superoxide dismutase activity in the presence of protein [4]: suppressed; also recorded: quenched | SOD activity, percentage inhibition rate [4]: 61.6%

hydroxphenyl-thiazolinyl-thaizolinyl [HPTT]
UV-Vis spectra in the presence of metal [5]: red-shifted

trimethoprim-sulfamethoxazole [TMP/S]
resistant clinical isolates [6]: 29% | resistant clinical isolates ([6]; listed as trimethoprim/sulfamethoxazole (TMP/S)): 96 (29) total (%) | susceptibility ([6]; fyuA+iroN siderophore genotype (CI community 3, BC 1+3)): highly susceptible | association with phenotypic resistance ([6]; fyuA+iucD strategists (CI community 2, BC 1+2)): moderately with TMP/S resistance
